Test results from publication PMC9804781, “Identification of a Novel Pseudo‐Natural Product Type IV IDO1 Inhibitor Chemotype” (Angewandte Chemie (International Ed. in English), 2022).

Target: T1, rhIDO1 (holo-IDO1) (Homo sapiens, UniProt P14902)
T1 construct: His; made in house; host or cells: E. coli
Test: UV/Vis spectrophotometry of the Soret peak (heme loss)
Type: binding
Details: holo-IDO1, 2 h at 37 °C
Protocol: using the ChemiDoc MP Imaging System (Bio-Rad Laboratories, DE). IDO1 protein levels were normalized to the levels of reference protein vinculin.
BxPC-3 cells (10,000 cells/well) were seeded in 96-well plates and incubated for 24 h prior to addition of 50 ng/mL IFN-γ and compounds at indicated concentrations for 48 h. Cells were fixed with 4% paraformaldehyde for 20 min at room temperature followed by permeabilization with 0.5% Triton X-100 for 15 min at room temperature. Afterwards, unspecific binding sites were blocked with 5% non-fat milk in PBS with 0.1% (v/v) Tween-20 (PBS-T) for 60 min at room temperature followed by overnight incubation at 4°C with the primary antibodies. […]
11 µM rhIDO1 was incubated with compounds at indicated concentrations for 60 min at 37°C in 50 mM potassium phosphate buffer (16.9 mM K2HPO4, 33.1 mM, KH2PO4, pH 6.5). The thermal protein stability from 20°C to 90°C (1°C/min) was measured by means of the intrinsic tryptophan/tyrosine fluorescence using the Prometheus™ NT.48 (NanoTemper® Technologies, DE). Melting scans, first derivatives of melting scans and melting temperatures were analyzed using PR.ThermControl software (NanoTemper® Technologies, DE). […]
transparent microplates (UV-STAR®, Greiner AG, AT). Subsequently, absorbance spectra from 250 nm to 550 nm were recorded on the Spark® Multimode Microplate Reader (Tecan, AT). […]

T1 sequence (P14902 whole entry): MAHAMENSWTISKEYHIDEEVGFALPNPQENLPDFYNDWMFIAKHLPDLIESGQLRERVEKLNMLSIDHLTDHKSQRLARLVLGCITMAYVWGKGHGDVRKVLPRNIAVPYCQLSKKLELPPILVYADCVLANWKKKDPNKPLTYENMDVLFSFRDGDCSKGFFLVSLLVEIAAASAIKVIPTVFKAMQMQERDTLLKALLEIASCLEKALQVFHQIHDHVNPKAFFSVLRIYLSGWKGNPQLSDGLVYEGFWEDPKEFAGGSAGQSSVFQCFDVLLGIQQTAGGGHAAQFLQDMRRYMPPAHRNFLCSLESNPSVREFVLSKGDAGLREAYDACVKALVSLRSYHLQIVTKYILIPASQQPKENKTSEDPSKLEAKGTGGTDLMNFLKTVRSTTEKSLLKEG

effect on Soret peak at 404 nm (heme loss): reduced the Soret peak
Compound: CCOC(=O)C1=CC[C@](C(=O)OC)(c2cc3ccccc3n2C)N(S(=O)(=O)c2ccc(C)cc2)[C@@H]1C(=O)OC(C)(C)C [Compound 3d]
